23 compounds from patent publication US8835428B2, “Diacylglycerol acyltransferase inhibitors” (Piramal Enterprises Limited, priority 2008, dated 2014) can be followed below.

The test concerns the target T1, hDGAT1 (Homo sapiens, UniProt O75907).
T1 construct: host or cells: Sf9 insect cells (baculovirus); microsomal preparation
T1 sequence (O75907 1-488): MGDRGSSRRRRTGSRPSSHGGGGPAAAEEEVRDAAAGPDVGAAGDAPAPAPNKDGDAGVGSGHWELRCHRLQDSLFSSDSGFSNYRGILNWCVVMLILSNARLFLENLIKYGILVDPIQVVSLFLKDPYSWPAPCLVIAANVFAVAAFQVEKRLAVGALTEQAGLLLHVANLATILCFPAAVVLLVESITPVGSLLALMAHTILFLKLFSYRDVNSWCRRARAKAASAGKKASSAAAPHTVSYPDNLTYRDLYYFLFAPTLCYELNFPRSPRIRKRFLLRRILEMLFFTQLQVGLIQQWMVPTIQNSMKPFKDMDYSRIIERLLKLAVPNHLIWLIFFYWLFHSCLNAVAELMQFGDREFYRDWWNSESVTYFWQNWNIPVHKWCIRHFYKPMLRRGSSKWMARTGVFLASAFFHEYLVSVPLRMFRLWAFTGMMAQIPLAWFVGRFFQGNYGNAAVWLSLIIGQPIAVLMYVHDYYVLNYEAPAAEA
Briefly: In-vitro DGAT1 assay (hDGAT1 microsomes from Sf9 cells, 14C oleoyl CoA, triglyceride formation). Type of test: biochemical. The gist of the method: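 Human DGAT1 in baculovirus-infected Sf9 microsomes (2.5–10 μg), [14C]oleoyl-CoA with 409.5, 1228.5 or 1638 μM 1,2-dioleoyl-sn-glycerol, Tris-HCl pH 7.4 buffer with BSA. Compounds screened at 10, 5 and 1 μM in duplicate. Reaction 10 min at 37 °C; heptane-extracted [14C]triglyceride counted by scintillation.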

With `COC(=O)[C@H]1CSC(c2cc(-c3ccc(Nc4nc5ccc(F)cc5s4)cc3)no2)=N1` [Example 11, (S)-2-{3-[4-(6-Fluoro-benzothiazol-2-ylamino)-phenyl]-isoxazol-5-yl}-4,5-dihydro-thiazole-4-carboxylic acid methyl ester], the inhibition (usually the drop in the measured response relative to a control, in per cent) at 10 µM lay in the range of 0 to 50%.
Compound `COC(=O)[C@H](CC(C)C)NC(=O)c1onc(-c2ccc(Nc3nc4ccc(F)cc4s3)cc2)c1-c1ccccc1` [Example 94, (S)-2-({3-[4-(6-Fluoro-benzothiazol-2-ylamino)-phenyl]-4-phenyl-isoxazole-5-carbonyl}-amino)-4-methyl-pentanoic acid methyl ester] came in with an inhibition at 10 µM of 0 to 50%.
In turn, `CSc1ccc(NC(=O)Nc2ccc(-c3cc(C(=O)N[C@H](C(=O)O)C(C)C)on3)cc2)cc1` [Example 197, (S)-3-methyl-2-(3-(4-(3-(4-(methylthio)phenyl)ureido)phenyl)isoxazole-5-carboxamido)butanoic acid] displayed an inhibition at 1 µM of 75 to 100%.
As to `O=C(Nc1ccc(-c2cc(C(=O)N3CCC[C@@H]3C(=O)O)on2)cc1)Nc1ccccc1F` [Example 260, (R)-1-(3-(4-(3-(2-Fluorophenyl)ureido)phenyl)isoxazole-5-carbonyl) pyrrolidine-2-carboxylic acid], the inhibition at 1 µM was 50 to 75%.
`CC(C)[C@@H](NC(=O)c1cc(-c2ccc(NS(=O)(=O)c3ccc(C(F)(F)F)cc3)cc2)no1)C(=O)O` [Example 319, (R)-3-methyl-2-(3-(4-(4-(trifluoromethyl)phenylsulfonamido)phenyl)isoxazole-5-carboxamido)butanoic acid]: the inhibition at 1 µM lay within 0 to 50%.
`COC(=O)[C@@H](NC(=O)c1cc(-c2ccc(NC(=S)Nc3ccccc3F)cc2)no1)C(C)C` [Example 269, (S)-methyl 2-(3-(4-(3-(2-fluorophenyl)thioureido)phenyl)isoxazole-5-carboxamido)-3-methylbutanoate] showed an inhibition at 5 µM (At 5 μM) of 0 to 50%.
`CC(C)[C@H](NC(=O)c1cc(-c2ccc(NC(=O)Nc3ccccc3OC(F)(F)F)cc2)no1)C(=O)O` [Example 203, (S)-3-methyl-2-(3-(4-(3-(2-(trifluoromethoxy)phenyl)ureido)phenyl)isoxazole-5-carboxamido)butanoic acid] displayed an inhibition at 1 µM of 75 to 100%.
`CC(C)[C@H](NC(=O)c1cc(-c2ccc(NC(=O)Nc3ccccc3C(F)(F)F)cc2)no1)C(=O)O` [Example 164, (S)-3-methyl-2-(3-(4-(3-(2-(trifluoromethyl)phenyl)ureido)phenyl)isoxazole-5-carboxamido)butanoic acid] showed an inhibition at 1 µM of 75 to 100%.
In turn, `Cc1cc(-c2cc(C(=O)NC(C)C(=O)O)on2)ccc1NC(=O)Nc1c(F)cccc1F` (centres unmarked) [Example 102, 2-(3-(4-(3-(2,6-Difluorophenyl)ureido)-3-methylphenyl)isoxazole-5-carboxamido)propanoic acid] yielded an inhibition at 10 µM of 0 to 50%.
With `CCOC(=O)c1cc(-c2ccc(Nc3nc4ccc(F)cc4s3)cc2)no1` [Example 1, 3-[4-(6-Fluoro-benzothiazol-2-ylamino)-phenyl]-isoxazole-5-carboxylic acid ethyl ester], the inhibition at 10 µM lay in the range of 50 to 75%.
In the case of `CC(C)[C@H](NC(=O)c1cc(-c2ccc(NC(=O)Nc3ccc(F)cc3F)cc2F)no1)C(=O)O` [Example 142, (S)-2-(3-(4-(3-(2,4-difluorophenyl)ureido)-2-fluorophenyl)isoxazole-5-carboxamido)-3-methylbutanoic acid], the inhibition at 5 µM (At 5 μM) is 75 to 100%.
In turn, `COC(=O)[C@H](CC(C)C)NC(=S)c1cc(-c2ccc(Nc3nc4ccc(F)cc4s3)cc2)no1` [Example 48, (S)-2-({3-[4-(6-Fluoro-benzothiazol-2-ylamino)-phenyl]-isoxazole-5-carbothioyl}-amino)-4-methyl-pentanoic acid methyl ester] displayed an inhibition at 10 µM of 0 to 50%.
In turn, `O=C(Nc1ccc(F)cc1)Nc1ccc(-c2cc(C(=O)NC3(C(=O)O)CCCC3)on2)cc1` [Example 120, 1-(3-(4-(3-(4-fluorophenyl)ureido)phenyl)isoxazole-5-carboxamido) cyclopentanecarboxylic acid] registered an inhibition at 10 µM of 50 to 75%.
On to `COC(=O)[C@@H](NC(=O)c1cc(-c2ccc(NC(=O)Nc3ccc(F)cc3)cc2)no1)C(C)C` [Example 84, (S)-2-[(3-{4-[3-(4-Fluoro-phenyl}-ureido]-phenyl)-isoxazole-5-carbonyl)-amino]-3-methyl-butyric acid methyl ester], for which the inhibition at 10 µM fell in the range of 50 to 75%.
In the case of `COC(=O)C(NC(=O)c1cc(-c2ccc(NC(=O)Nc3ccccc3C)cc2)no1)C(C)C` (centres unmarked) [Example 153, Methyl 3-methyl-2-(3-(4-(3-o-tolylureido)phenyl)isoxazole-5-carboxamido) butanoate], the “% inhibition of hDGAT1” value (At 5 μM) was “+ (>0% Inhibition ≦50)”.
Take `CCCCc1ccc(NC(=O)Nc2ccc(-c3cc(C(=O)NC(C(=O)O)C(C)C)on3)cc2)cc1` (centres unmarked) [Example 158, 2-(3-(4-(3-(4-butylphenyl)ureido)phenyl)isoxazole-5-carboxamido)-3-methylbutanoic acid]: the inhibition at 1 µM was 75 to 100%.
`COC(=O)[C@@H]1CCCN1C(=O)c1cc(-c2ccc(Nc3nc4ccc(F)cc4s3)cc2)no1` [Example 18, (S)-1-{3-[4-(6-Fluoro-benzothiazol-2-ylamino)-phenyl]-isoxazole-5-carbonyl}-pyrrolidine-2-carboxylic acid methyl ester] had an inhibition at 10 µM of 50 to 75%.
Take `O=C(O)[C@@H]1CCCN1C(=S)c1cc(-c2cccc(Nc3nc4ccc(F)cc4s3)c2)no1` [Example 37, (S)-1-{3-[3-(6-Fluoro-benzothiazol-2-ylamino)-phenyl]-isoxazole-5-carbothioyl}-pyrrolidine-2-carboxylic acid]: the inhibition at 10 µM is 0 to 50%.
The compound `COC(=O)[C@H](C(C)C)N(C)C(=O)c1cc(-c2ccc(NC(=O)Nc3ccc(F)cc3)cc2)no1` [Example 307, (S)-methyl 2-(3-(4-(3-(4-fluorophenyl)ureido)phenyl)-N-methylisoxazole-5-carboxamido)-3-methylbutanoate] yielded an inhibition at 1 µM of 50 to 75%.
With `COC(=O)[C@@H](NC(=O)c1nc(-c2ccc(NC(=O)NCc3ccccc3)cc2)no1)C(C)C` [Example 352, (S)-methyl 2-(3-(4-(3-benzylureido)phenyl)-1,2,4-oxadiazole-5-carboxamido)-3-methylbutanoate], the inhibition at 5 µM (At 5 μM) lay within 0 to 50%.
`CCC(C)[C@H](NC(=O)c1cc(-c2ccc(NC(=O)Nc3ccccc3)cc2)no1)C(=O)OC` (stereo partly drawn) [Example 78, (S)-3-Methyl-2-({3-[4-(3-phenyl-ureido)-phenyl]-isoxazole-5-carbonyl}-amino)-pentanoic acid methyl ester] had an inhibition at 10 µM of 0 to 50%.
Consider `COC(=O)[C@H](NC(=O)c1cc(-c2ccc(NC(=O)Nc3ccc(C#N)cc3)cc2)no1)C(C)C` [Example 218, (R)-methyl 2-(3-(4-(3-(4-cyanophenyl)ureido)phenyl)isoxazole-5-carboxamido)-3-methylbutanoate], for which the inhibition at 1 µM lay in the range of 0 to 50%.
`COC(=O)[C@H](NC(=O)c1cc(-c2ccc(Nc3nc4ccc(F)cc4s3)cc2)no1)C(C)C` [Example 38, (R)-2-({3-[4-(6-Fluoro-benzothiazol-2-ylamino)-phenyl]-isoxazole-5-carbonyl}-amino)-3-methyl-butyric acid methyl ester]: the inhibition at 10 µM was 50 to 75%.
